From patent US10494380B2, “Nitrogen-containing tricyclic derivatives having HIV replication inhibitory activity” (priority 2015, dated 2019)
Read-outs that look alike come from different tables or passages of the source.

Assays:
[1] = system: T125A mutant virus (HIV-1 NL-432 recombinant molecular clone, IN gene); experiment: HIV replication inhibition assay against integrase 124/125 mutant virus (Test Example 2); format: cell-based
Outline: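 MT-4 cells (2.5×10^4 per well) infected with 60 pfu of 293T-derived HIV-1 NL-432 clone carrying integrase 124/125 point mutations, in presence of compound, cultured 4 days at 37 °C. Viability by MTT formazan at 560/690 nm; EC50 = concentration inhibiting 50% of virus-induced cytotoxicity.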

HIV = format: cell-based; details: EC50 in the presence of human serum (25%) versus without human serum, MT-4 cells
Experimental: To confirm the influence of human serum on anti-HIV activity as necessary, human serum was added and determined EC50 in this condition. Human serum (100 μL/well) was dispensed into each anti-HIV active substance at a designated concentration dispensed 50 μL each in advance into a 96-well microtiter plate, and the plate was incubate at room temperature for 1 hour. To the serum-free plate, only culture medium (100 μL/well) was dispensed into 96-well microtiter plate. MT-4 cells (3×10^4 cells/well) was infected with 3 μL/well of HIV solution diluted to an appropriate concentration (600 pfu/50 μL) by the required number of wells and incubated at 37° C. for 1 hour. The infected cells were centrifuged at 1200 rpm for 5 minutes, the supernatant was discarded, and the infected cells were dispersed into culture medium for the required number of wells at 50 μL/well. Infected cell suspension was dispensed into a 96-well microtiter plate of which anti-HIV active substance and human serum prepared in advance. The cell mixture was mixed with a plate mixer and cultured in a CO2 incubator for 4 days. The EC50 in the presence of human serum was calculated in the same manner as in Test Example 1 and the ratio of EC50 in the presence of human serum and EC50 in the absence of human serum was calculated as the potency shift value. […]

[2] = Human immunodeficiency virus 1, MT4, read-out: EC50 against T125A mutant virus, T125A mutant virus (HIV-1 NL-432 IN gene), MT-4 cells, MTT
[3] = read-out: EC50 against T125A mutant virus, T125A mutant virus (HIV-1 NL-432 IN gene), MT-4 cells, MTT
[4] = T125A mutant virus (HIV-1 NL-432 IN gene), MT-4 cells, MTT, read-out: EC50 against T125A mutant virus

| SMILES | EC50 [1, 2] [nM] | Potency shift value (HIV) | EC50 [1, 3] [nM] | EC50 [1, 4] [nM] |
| --- | --- | --- | --- | --- |
| Cc1c([C@H](OC(C)(C)C)C(=O)O)c(-c2ccc(Cl)cc2)c2cc(C)n3c2c1N(c1ncc(-c2ccc(F)cc2)cn1)CC3 [Compound I-239] | 22 | 16 | – | – |
| Cc1c([C@H](OC(C)(C)C)C(=O)O)c(-c2ccc(Cl)cc2)c2cc(C)n3c2c1N(C)CC3c1ccccc1 (stereo partly shown) [Compound I-332] | – | 25 | 13 | – |
| Cc1c([C@H](OC(C)(C)C)C(=O)O)c(-c2ccc(Cl)cc2)c2cc(C)n3c2c1N(C(=O)C(=O)N(C)C)[C@H](C)C3 [Compound I-169] | 50 | 30 | – | – |
| Cc1c([C@H](OC(C)(C)C)C(=O)O)c(-c2ccc(Cl)cc2)c2cc(C)n3c2c1N(c1ncccc1F)CC3 [Compound I-193] | 2.8 | 21 | – | – |
| Cc1c(-c2c([C@H](OC(C)(C)C)C(=O)O)c(C)c3c4c2cc(C)n4CCN3C)cc(F)c2c1CCCO2 [Compound I-159] | 16 | 8.8 | – | – |
| Cc1c([C@H](OC(C)(C)C)C(=O)O)c(-c2ccc(Cl)cc2)c2cc(C)n3c2c1N(C(=O)Nc1ccccc1N)CC3 [Compound I-218] | – | 5.5 | – | 20 |
| COc1cnc(N2CCn3c(C)cc4c(-c5ccccc5)c([C@H](OC(C)(C)C)C(=O)O)c(C)c2c43)nc1 [Compound I-231] | 10 | 22 | – | – |
| COCc1cnc(N2CCn3c(C)cc4c(-c5ccc(Cl)cc5)c([C@H](OC(C)(C)C)C(=O)O)c(C)c2c43)nc1 [Compound I-312] | 4.6 | 37 | – | – |
| Cc1c([C@H](OC(C)(C)C)C(=O)O)c(-c2ccc(Cl)cc2)c2cc(C)n3c2c1N(C(N)=S)CC3 [Compound I-166] | 62 | 3.5 | – | – |
| Cc1c([C@H](OC(C)(C)C)C(=O)O)c(-c2ccc(Cl)cc2)c2cc(C)n3c2c1N(Cc1cnccn1)CC3 [Compound I-152] | 11 | 6.9 | – | – |
| Cc1c([C@H](OC(C)(C)C)C(=O)O)c(-c2ccc(Cl)cc2)c2cc(C)n3c2c1N(C(N)=O)CC3 [Compound I-173] | 71 | 4 | – | – |
| Cc1c([C@H](OC(C)(C)C)C(=O)O)c(-c2ccc(Cl)cc2)c2cc(C)n3c2c1N(C)C1COCC13 (stereo partly shown) [Compound I-138] | – | 5.8 | 1.5 | – |
| Cc1c([C@H](OC(C)(C)C)C(=O)O)c(-c2ccc(Cl)cc2)c2cc(C)n3c2c1N(c1ncc(C2CCOCC2)cn1)CC3 [Compound I-311] | 3.1 | 15 | – | – |
| Cc1c([C@H](OC(C)(C)C)C(=O)O)c(-c2ccc(Cl)cc2)c2cc(C)n3c2c1N(c1nc2ccccc2n1C)CC3 [Compound I-242] | 6.4 | 11 | – | – |
| COc1ccc(N2CCn3c(C)cc4c(-c5ccc(C)cc5)c([C@H](OC(C)(C)C)C(=O)O)c(C)c2c43)nn1 [Compound I-328] | 51 | 4.2 | – | – |
| Cc1ccc(-c2c([C@H](OC(C)(C)C)C(=O)O)c(C)c3c4c2cc(C)n4CCN3c2ncc(OCCN(C)S(C)(=O)=O)cn2)cc1 [Compound I-225] | – | 9.7 | – | 11 |
| Cc1c([C@H](OC(C)(C)C)C(=O)O)c(-c2ccc(Cl)cc2)c2cc(C)n3c2c1N(c1ncc(CN(C)C)cn1)CC3 [Compound I-313] | 8.8 | 7.7 | – | – |
| Cc1c([C@H](OC(C)(C)C)C(=O)O)c(-c2ccc(Cl)cc2)c2cc(C)n3c2c1N(c1nc2ccccc2s1)CC3 [Compound I-240] | 51 | 12 | – | – |
| Cc1ccc(-c2c([C@H](OC(C)(C)C)C(=O)O)c(C)c3c4c2cc(C)n4CCN3c2ncc(OCCO)cn2)cc1 [Compound I-283] | 12 | 9.5 | – | – |
| Cc1ccc(-c2c([C@H](OC(C)(C)C)C(=O)O)c(C)c3c4c2cc(C)n4CCN3S(=O)(=O)CCO)cc1 [Compound I-210] | – | 5.4 | – | 65 |
| Cc1c(-c2c([C@H](OC(C)(C)C)C(=O)O)c(C)c3c4c2cc(C)n4CCN3CCN(C)C)cc(F)c2c1CCCO2 [Compound I-310] | 68 | 1.2 | – | – |
| Cc1ccc(-c2c([C@H](OC(C)(C)C)C(=O)O)c(C)c3c4c2cc(C)n4CCN3CC2COC2)cc1 [Compound I-211] | – | 7.5 | – | 20 |

| SMILES | EC50 [1, 2] [nM] | Potency shift value (HIV) | EC50 [1, 3] [nM] | EC50 [1, 4] [nM] |
| --- | --- | --- | --- | --- |
| Cc1ccc(-c2c([C@H](OC(C)(C)C)C(=O)O)c(Cl)c3c4c2cc(C)n4CCN3)cc1 [Compound I-247] | 8.3 | 7.6 | – | – |
| Cc1ccc(-c2c([C@H](OC(C)(C)C)C(=O)O)c(C)c3c4c2cc(C)n4CCN3c2ncc(Oc3ccc4ccccc4n3)cn2)cc1 [Compound I-338] | 21 | 18 | – | – |
| Cc1ccc(-c2c([C@H](OC(C)(C)C)C(=O)O)c(C)c3c4c2cc(C)n4CCN3c2ncc(C3=CCN(C)CC3)cn2)cc1 [Compound I-212] | – | 3.9 | – | 6.8 |
| Cc1ccc(-c2c([C@H](OC(C)(C)C)C(=O)O)c(C)c3c4c2cc(C)n4CCN3CCOC(F)F)cc1 [Compound I-208] | – | 11 | – | 24 |
| Cc1ccc(-c2c([C@H](OC(C)(C)C)C(=O)O)c(Cl)c3c4c2cc(C)n4CCN3c2ccc(C)nn2)cc1 [Compound I-354] | 5.3 | 27 | – | – |
| Cc1ccc(-c2c([C@H](OC(C)(C)C)C(=O)O)c(C)c3c4c2cc(C)n4CCN3c2ncc(Oc3nc(C)nc4ccccc34)cn2)cc1 [Compound I-343] | 21 | 11 | – | – |
| Cc1ccc(-c2c([C@H](OC(C)(C)C)C(=O)O)c(C)c3c4c2cc(C)n4CCN3CCN2CCC(F)(F)C2)cc1 [Compound I-162] | 35 | 7.5 | – | – |
| Cc1ccc(-c2c([C@H](OC(C)(C)C)C(=O)O)c(C)c3c4c2cc(C)n4CCN3c2ncc(CCN3CCN(C)CC3)cn2)cc1 [Compound I-351] | 17 | 5.5 | – | – |
| COc1cnc(N2c3c(C)c([C@H](OC(C)(C)C)C(=O)O)c(-c4ccc(Cl)cc4)c4cc(C)n(c34)C3CN(C(=O)c4ccccc4)CC32)nc1 (stereo partly shown) [Compound I-322] | 44 | 15 | – | – |
| Cc1ccc(-c2c([C@H](OC(C)(C)C)C(=O)O)c(Cl)c3c4c2cc(C)n4CCN3c2nc3c(s2)CN(C)CC3)cc1 [Compound I-353] | 15 | 10 | – | – |
| COc1cncc(N2CCn3c(C)cc4c(-c5ccc(C)cc5)c([C@H](OC(C)(C)C)C(=O)O)c(C)c2c43)n1 [Compound I-274] | 14 | 16 | – | – |
| Cc1ccc(-c2c([C@H](OC(C)(C)C)C(=O)O)c(C)c3c4c2cc(C)n4CCN3c2cccc(F)n2)cc1 [Compound I-286] | 15 | 14 | – | – |
| Cc1ccc(-c2c([C@H](OC(C)(C)C)C(=O)O)c(Cl)c3c4c2cc(C)n4CCN3c2nc3c(s2)CCN(C)C3)cc1 [Compound I-352] | 14 | 10 | – | – |
| Cc1c([C@H](OC(C)(C)C)C(=O)O)c(-c2ccc(Cl)cc2)c2cc(C)n3c2c1N(c1ncc(N2CCCC2)cn1)CC3 [Compound I-252] | 8.5 | 23 | – | – |
| Cc1c([C@H](OC(C)(C)C)C(=O)O)c(-c2ccc(Cl)cc2)c2cc(C)n3c2c1N(C(=O)Nc1ccccc1Br)CC3 [Compound I-232] | 34 | 8.6 | – | – |
| Cc1c([C@H](OC(C)(C)C)C(=O)O)c(-c2ccc(Cl)cc2)c2cc(C)n3c2c1N(c1ncc(OCC2(F)COC2)cn1)CC3 [Compound I-259] | 4.4 | 15 | – | – |
| Cc1ccc(-c2c([C@H](OC(C)(C)C)C(=O)O)c(C)c3c4c2cc(C)n4CCN3CC(F)F)cc1 [Compound I-281] | 17 | 23 | – | – |
| COCCOc1cnc(N2CCn3c(C)cc4c(-c5ccc(Cl)cc5)c([C@H](OC(C)(C)C)C(=O)O)c(C)c2c43)nc1 [Compound I-234] | 3.6 | 19 | – | – |
| Cc1c([C@H](OC(C)(C)C)C(=O)O)c(-c2c(F)cc(F)cc2F)c2cc(C)n3c2c1N(C)CC3 [Compound I-191] | 13 | 7.4 | – | – |
| Cc1ccc(-c2c([C@H](OC(C)(C)C)C(=O)O)c(C)c3c4c2cc(C)n4CCN3c2ncc(Oc3ncccn3)cn2)cc1 [Compound I-330] | 7.7 | 39 | – | – |
| Cc1ccc(-c2c([C@H](OC(C)(C)C)C(=O)O)c(C)c3c4c2cc(C)n4CCN3c2ncc(OC3COC3)cn2)cc1 [Compound I-280] | 5.3 | 21 | – | – |
| Cc1ccc(-c2c([C@H](OC(C)(C)C)C(=O)O)c(C)c3c4c2cc(C)n4CCN3c2ncc(OCCCO)cn2)cc1 [Compound I-284] | 3.6 | 17 | – | – |
